Test results: patent US20230000769A1, “OIL-IN-WATER EMULSION FORMULATIONS FOR DELIVERY OF ACTIVE OR THERAPEUTIC AGENTS” (IMMUNOVACCINE TECHNOLOGIES INC., priority 2019, published 2023)

Assay: HPLC analysis of oil (top) and aqueous (bottom) layers of centrifuged O/W emulsions
Assay type: physicochemical
Conditions: control or Bottom layer-Water; target 8.00 mg/mL
Procedure: O/W emulsions were prepared by combining the hydrophobic phase (DPX-empty in Montanide™ ISA 51 oil) and the aqueous phase (containing an aqueous phase agent) with 120 passes through a Vygon™ connector.
For analysis by High Performance Liquid Chromatography (HPLC), the O/W emulsion formulations were centrifuged at 15,000 RPM for 30 minutes to separate oil (top) and aqueous (bottom) layers, and samples from both layers were analysed. Samples were prepared using n-Butanol Extraction method (for oil phase) and Total solubilization method (for aqueous phase). n-Butanol Extraction method (for oil phase): To 100 μL of the top layer oil sample 300 μL of 0.1M NaHCO3 and 400 μL of water saturated 1-Butanol were added. Sample was vortexed to mix and centrifuged for 2 mins at 5000 RPM. The bottom layer was taken for analysis. Total solubilization method (for aqueous phase): To 75 μL of the bottom layer aqueous sample, up to 5 mL of mobile phase A was added. The mobile phases used for cyclophosphamide, oligonucleotide and anti-CTLA4 analysis were as follows, Cyclophosphamide: Mobile Phase A: 30% acetonitrile in water; Mobile Phase B: methanol. Oligonucleotide: Mobile Phase A: mix of tris, acetonitrile, water; Mobile Phase B: mix of tris, NaCL, acetonitrile, water. Anti-CTLA4: Mobile Phase A: 0.1% TFA/water; Mobile Phase B: 0.1% TFA/acetonitrile; Mobile Phase C: methanol. […]

O=P1(N(CCCl)CCCl)NCCCO1 (stereo not shown) [Cyclophosphamide control, N,N-bis(2-chloroethyl)-1,3,2-oxazaphosphinan-2-amine 2-oxide]
Cyclophosphamide Concentration: 6.76 mg/mL
